pIC50: −log10 of the molar value.
What was measured:
[1] = molecular target: T1, human E3 ubiquitin-protein ligase RNF31 (HOIP) (Homo sapiens, UniProt Q96EP0); assay: Cell-free HTRF-based HOIP inhibition assay; assay type: biochemical
T1 sequence (Q96EP0 695-1072 limits assumed): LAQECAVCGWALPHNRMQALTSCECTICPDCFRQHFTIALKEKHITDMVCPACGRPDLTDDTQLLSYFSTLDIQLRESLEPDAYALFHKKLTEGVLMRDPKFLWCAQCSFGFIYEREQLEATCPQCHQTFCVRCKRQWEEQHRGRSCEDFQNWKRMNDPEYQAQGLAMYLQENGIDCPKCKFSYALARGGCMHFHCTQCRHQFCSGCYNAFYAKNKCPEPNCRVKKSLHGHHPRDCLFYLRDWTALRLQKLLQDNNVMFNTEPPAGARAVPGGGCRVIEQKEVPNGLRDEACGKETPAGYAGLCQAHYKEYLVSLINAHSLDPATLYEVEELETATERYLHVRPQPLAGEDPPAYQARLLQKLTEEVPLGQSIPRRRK
Outline: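 Recombinant human HOIP fragment (E. coli) preincubated with compounds (100-0.005 μM, 1% DMSO) and E1 for 1 h at 25° C. E2 and substrates then added; reaction 2.5 h at 25° C. HTRF read-out, excitation 337 nm, emissions 665/620 nm.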

[2] = tested on: NF-κB signaling pathway; assay: Cell-based dual luciferase NF-κB reporter assay (HEK293 cells, TNF stimulated); details: Homo sapiens, HEK293
Outline: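 HEK293 cells transfected with Firefly luciferase and NF-κB-response-element NanoLuc plasmids; compounds at 100–0.005 µM in 1% DMSO. Cells stimulated with 2.5 ng/mL TNF 30 min after compound addition. Firefly and NanoLuc activities read after 6 h by Nano-Glo dual-luciferase detection.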

[3] = tested on: bladder carcinoma RT4 cell line; assay: TNF-α-induced cytotoxicity assay (CellTiter-Glo viability); assay type: cell-based; details: Homo sapiens, RT-4, 72 h
Outline: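 RT4 bladder carcinoma cells, 1000 per well, stimulated with 1.25 ng/mL TNFα together with compound for 72 h at 37° C., 5% CO2. Viability read by CellTiter-Glo luminescence, proportional to cellular ATP, as a measure of HOIP-dependent cytotoxicity.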

SMILES	pIC50 [1]	pIC50 [2]	pIC50 [3]
O=C(NC/C=C/S(=O)(=O)c1ccccc1)c1cc2c([nH]c1=O)CCN(C(=O)CC1CC1)C2 [Example 117, N-[(2E)-3-(benzenesulfonyl)prop-2-en-1-yl]-6-(2-cyclopropylacetyl)-2-oxo-1,2,5,6,7,8-hexahydro-1,6-naphthyridine-3-carboxamide]	≥ 6.00	≥ 4.00	≥ 4.00
O=C(NC/C=C/S(=O)(=O)c1cccs1)c1cc2c([nH]c1=O)CCCC2 [Example 44, 2-oxo-N-[(2E)-3-(thiophene-2-sulfonyl)prop-2-en-1-yl]-1,2,5,6,7,8-hexahydroquinoline-3-carboxamide]	≥ 6.00	≥ 6.00	≥ 6.00
O=C(NC/C=C/S(=O)(=O)c1cccc(F)c1)c1cc2c([nH]c1=O)CCCC2 [Example 39, N-[(2E)-3-(3-fluorobenzenesulfonyl)prop-2-en-1-yl]-2-oxo-1,2,5,6,7,8-hexahydroquinoline-3-carboxamide]	≥ 7.00	≥ 6.00	≥ 6.00
N=S(=O)(/C=C/CNC(=O)c1cc2c([nH]c1=O)CCN(C(=O)OCCF)C2)c1ccccc1 (stereo not drawn) [Example 181, 2-fluoroethyl 3-{[(2E)-3-[imino(oxo)phenyl-λ^6-sulfanyl]prop-2-en-1-yl]carbamoyl}-2-oxo-1,2,5,6,7,8-hexahydro-1,6-naphthyridine-6-carboxylate]	≥ 6.00	≥ 4.00	≥ 5.00
CO[C@H]1CC[C@H](C(=O)N2CCc3[nH]c(=O)c(C(=O)NC/C=C/S(=O)(=O)c4ccccc4)cc3C2)CC1 [Example 107, N-[(2E)-3-(benzenesulfonyl)prop-2-en-1-yl]-2-oxo-6-[(1r,4r)-4-methoxycyclohexanecarbonyl]-1,2,5,6,7,8-hexahydro-1,6-naphthyridine-3-carboxamide]	≥ 6.00	≥ 4.00	≥ 4.00
O=C(NC/C=C/S(=O)(=O)c1ccccc1)c1cc2c([nH]c1=O)CCN(C(=O)C1CCOC1)C2 (stereo not drawn) [Example 113, N-[(2E)-3-(benzenesulfonyl)prop-2-en-1-yl]-2-oxo-6-(oxolane-3-carbonyl)-1,2,5,6,7,8-hexahydro-1,6-naphthyridine-3-carboxamide]	≥ 6.00	≥ 4.00	≥ 4.00
COc1ccc(S(=O)(=O)/C=C/CNC(=O)c2cc3c([nH]c2=O)CCCC3)cc1F [Example 19, N-[(2E)-3-(3-fluoro-4-methoxybenzenesulfonyl)prop-2-en-1-yl]-2-oxo-1,2,5,6,7,8-hexahydroquinoline-3-carboxamide]	≥ 7.00	≥ 6.00	≥ 6.00
CC(C)(C)NC(=O)N1CCc2[nH]c(=O)c(C(=O)NC/C=C/S(=O)(=O)c3ccc(Cl)cc3)cc2C1 [Example 99, N6-tert-butyl-N3-[(2E)-3-(4-chlorobenzenesulfonyl)prop-2-en-1-yl]-2-oxo-1,2,5,6,7,8-hexahydro-1,6-naphthyridine-3,6-dicarboxamide]	≥ 6.00	≥ 5.00	≥ 5.00
O=C(NC/C=C/S(=O)(=O)c1ccc(Cl)cc1)c1cc2c([nH]c1=O)CCN(C(=O)OCC(F)(F)F)C2 [Example 97, 2,2,2-trifluoroethyl 3-{[(2E)-3-(4-chlorobenzenesulfonyl)prop-2-en-1-yl]carbamoyl}-2-oxo-1,2,5,6,7,8-hexahydro-1,6-naphthyridine-6-carboxylate]	≥ 7.00	≥ 6.00	≥ 5.00
O=C(NC/C=C/S(=O)(=O)c1ccccc1)c1cc2c([nH]c1=O)CCN(C(=O)OC1CCCCC1)C2 [Example 90, cyclohexyl 3-{[(2E)-3-(benzenesulfonyl)prop-2-en-1-yl]carbamoyl}-2-oxo-1,2,5,6,7,8-hexahydro-1,6-naphthyridine-6-carboxylate]	≥ 7.00	≥ 6.00	≥ 6.00
O=C(NC/C=C/S(=O)(=O)c1ccc(Cl)cc1)c1cc2c([nH]c1=O)CCN(C(=O)OCC1CC1)C2 [Example 88, cyclopropylmethyl 3-{[(2E)-3-(4-chlorobenzenesulfonyl)prop-2-en-1-yl]carbamoyl}-2-oxo-1,2,5,6,7,8-hexahydro-1,6-naphthyridine-6-carboxylate]	≥ 7.00	≥ 6.00	≥ 6.00
O=C(NC/C=C/S(=O)(=O)c1ccccc1)c1cc2c([nH]c1=O)CCN(C(=O)OCCN1CCCCC1=O)C2 [Example 83, 2-(2-Oxopiperidin-1-yl)ethyl 3-{[(2E)-3-(benzenesulfonyl)prop-2-en-1-yl]carbamoyl}-2-oxo-1,2,5,6,7,8-hexahydro-1,6-naphthyridine-6-carboxylate]	≥ 6.00	≥ 4.00	≥ 4.00
CC1(C(=O)N2CCc3[nH]c(=O)c(C(=O)NC/C=C/S(=O)(=O)c4ccccc4)cc3C2)CCC1 [Example 115, N-[(2E)-3-(benzenesulfonyl)prop-2-en-1-yl]-6-(1-methylcyclobutanecarbonyl)-2-oxo-1,2,5,6,7,8-hexahydro-1,6-naphthyridine-3-carboxamide]	≥ 6.00	≥ 4.00	≥ 4.00
O=C(NC/C=C/S(=O)(=O)c1ccccc1)c1cc2c([nH]c1=O)CCN(C(=O)OC1CC1)C2 [Example 78, cyclopropyl 3-{[(2E)-3-(benzenesulfonyl)prop-2-en-1-yl]carbamoyl}-2-oxo-1,2,5,6,7,8-hexahydro-1,6-naphthyridine-6-carboxylate]	≥ 6.00	≥ 6.00	≥ 5.00
CC12CC(C(=O)N3CCc4[nH]c(=O)c(C(=O)NC/C=C/S(=O)(=O)c5ccccc5)cc4C3)(C1)C2 [Example 114, N-[(2E)-3-(benzenesulfonyl)prop-2-en-1-yl]-6-{3-methylbicyclo[1.1.1]pentane-1-carbonyl}-2-oxo-1,2,5,6,7,8-hexahydro-1,6-naphthyridine-3-carboxamide]	≥ 6.00	≥ 5.00	≥ 4.00
O=C(NC/C=C/S(=O)(=O)c1ccccc1)c1cc2c([nH]c1=O)CCN(C(=O)c1nc(C3CC3)cs1)C2 [Example 116, N-[(2E)-3-(benzenesulfonyl)prop-2-en-1-yl]-6-(4-cyclopropyl-1,3-thiazole-2-carbonyl)-2-oxo-1,2,5,6,7,8-hexahydro-1,6-naphthyridine-3-carboxamide]	≥ 7.00	≥ 5.00	≥ 5.00
N=S(=O)(/C=C/CNC(=O)c1cc2c([nH]c1=O)CCN(C(=O)OCC1CC1)C2)c1ccccc1 (stereo not drawn) [Example 179, cyclopropylmethyl 3-{[(2E)-3-[imino(oxo)phenyl-λ^6-sulfanyl]prop-2-en-1-yl]carbamoyl}-2-oxo-1,2,5,6,7,8-hexahydro-1,6-naphthyridine-6-carboxylate]	≥ 6.00	≥ 5.00	≥ 5.00
CC1(C)CCc2[nH]c(=O)c(C(=O)NC/C=C/S(=O)(=O)c3ccccc3)cc2C1 [Example 48, N-[(2E)-3-(benzenesulfonyl)prop-2-en-1-yl]-6,6-dimethyl-2-oxo-1,2,5,6,7,8-hexahydroquinoline-3-carboxamide]	≥ 6.00	≥ 6.00	≥ 6.00
O=C(NC/C=C/S(=O)(=O)c1ccc(Cl)cc1)c1cc2c([nH]c1=O)CCN(C(=O)NCC1CC1)C2 [Example 100, N3-[(2E)-3-(4-chlorobenzenesulfonyl)prop-2-en-1-yl]-N6-(cyclopropylmethyl)-2-oxo-1,2,5,6,7,8-hexahydro-1,6-naphthyridine-3,6-dicarboxamide]	≥ 6.00	≥ 4.00	≥ 4.00
O=C(NC/C=C/S(=O)(=O)c1ccc(F)cc1)c1cc2c([nH]c1=O)CCCCC2 [Example 35, N-[(2E)-3-(4-fluorobenzenesulfonyl)prop-2-en-1-yl]-2-oxo-1H,2H,5H,6H,7H,8H,9H-cyclohepta[b]pyridine-3-carboxamide]	≥ 6.00	≥ 6.00	≥ 5.00
N=S(=O)(/C=C/CNC(=O)c1cc2c([nH]c1=O)CCCC2)c1ccc(F)cc1F (stereo not drawn) [Example 135, N-[(2E)-3-[(2,4-difluorophenyl)(imino)oxo-λ^6-sulfanyl]prop-2-en-1-yl]-2-oxo-1,2,5,6,7,8-hexahydroquinoline-3-carboxamide]	≥ 6.00	≥ 6.00	≥ 5.00
O=C(NC/C=C/S(=O)(=O)c1ccc(F)cc1F)c1cc(-c2ccccc2)c[nH]c1=O [Example 127, N-[(2E)-3-(2,4-difluorobenzenesulfonyl)prop-2-en-1-yl]-2-oxo-5-phenyl-1,2-dihydropyridine-3-carboxamide]	≥ 6.00	≥ 6.00	≥ 5.00
COc1ccc(S(=N)(=O)/C=C/CNC(=O)c2cc3c([nH]c2=O)CCN(Cc2ccccc2)C3)cc1F (stereo not drawn) [Example 153, 6-benzyl-N-[(2E)-3-[(3-fluoro-4-methoxyphenyl)(imino)oxo-A*-sulfanyl]prop-2-en-1-yl]-2-oxo-1,2,5,6,7,8-hexahydro-1,6-naphthyridine-3-carboxamide]	≥ 6.00	≥ 6.00	≥ 6.00

Reference: patent US20260250250A1, “3-(SULPHONYL OR SULFONIMIDOYL)PROP-2-EN-1-YL]-2-OXO-1,2-DIHYDROPYRIDINE-3-CARBOXAMIDE DERIVATIVES” (Flinder Therapeutics B.V., priority 2022, published 2026)
